In ChEMBL document CHEMBL3885881, “DrugMatrix”:

Species: Rattus norvegicus
Assay: DrugMatrix - Regimen: Daily Repeat
Type: toxicity, organism-based, Sprague-Dawley
Design: regimen Daily Repeat, gender Male, age 6-8 weeks
Details: in vivo, po, route oral GAVAGE, vehicle 100 % WATER; for BASOPHIL / EOSINOPHIL / ERYTHROCYTE COUNT / HEMATOCRIT / HEMOGLOBIN / LEUKOCYTE COUNT / LYMPHOCYTE / MEAN CORPUSCULAR HEMOGLOBIN / MEAN CORPUSCULAR HEMOGLOBIN CONCENTRATION / MEAN CORPUSCULAR VOLUME / MONOCYTE / NEUTROPHIL / PLATELET COUNT: tissue Blood; for ALANINE AMINOTRANSFERASE / ALBUMIN / ALKALINE PHOSPHATASE / ASPARTATE AMINOTRANSFERASE / BLOOD UREA NITROGEN / CHLORIDE / CHOLESTEROL / CREATINE PHOSPHOKINASE / CREATININE / GLUCOSE / PHOSPHORUS / POTASSIUM / SODIUM / TOTAL BILIRUBIN / TOTAL PROTEIN: tissue Plasma
[1] = 0 mg/kg, 72 h, dose level Control, time 3 day
[2] = 0 mg/kg, 120 h, dose level Control, time 5 day
[3] = 100 mg/kg, 72 h, dose level Low, time 3 day
[4] = 100 mg/kg, 120 h, dose level Low, time 5 day
[5] = 1000 mg/kg, 72 h, dose level High, time 3 day
[6] = 1000 mg/kg, 120 h, dose level High, time 5 day

In the case of `Oc1cccc(O)c1O` [PYROGALLOL], the BASOPHIL [1] is reported as 0%, the EOSINOPHIL [1] is reported as 0.5% and the “ERYTHROCYTE COUNT” value [1] is reported as 5.8 x10E6/uL. The HEMATOCRIT [1] was 35.07%, the HEMOGLOBIN [1] was 14.12 G/DL and the “LEUKOCYTE COUNT” value [1] was 13.7 x10E3/uL. For the same compound, the LYMPHOCYTE [1] was 82.33%, the “MEAN CORPUSCULAR HEMOGLOBIN” value [1] was 24.38 pg and the “MEAN CORPUSCULAR HEMOGLOBIN CONCENTRATION” value [1] was 40.28 G/DL. For the same compound, the “MEAN CORPUSCULAR VOLUME” value [1] was 60.52 fL, the MONOCYTE [1] was 2.67% and the NEUTROPHIL [1] was 14.5%. The “PLATELET COUNT” value [1] was 911.5 x10E3/uL, the “ALANINE AMINOTRANSFERASE” value [1] was 36.83 u/L and the ALBUMIN [1] was 3.75 G/DL. For the same compound, the “ALKALINE PHOSPHATASE” value [1] was 399.83 u/L, the “ASPARTATE AMINOTRANSFERASE” value [1] was 66 u/L and the “BLOOD UREA NITROGEN” value [1] was 14.67 mg/dL. For the same compound, the CHLORIDE [1] was 101.67 MEQ/L, the CHOLESTEROL [1] was 66.33 mg/dL and the “CREATINE PHOSPHOKINASE” value [1] was 139.5 u/L. For the same compound, the CREATININE [1] was 0.92 mg/dL, the GLUCOSE [1] was 175 mg/dL and the PHOSPHORUS [1] was 11.42 mg/dL. The POTASSIUM [1] was 7.03 MEQ/L, the SODIUM [1] was 148.5 MEQ/L and the “TOTAL BILIRUBIN” value [1] was 1.13 mg/dL. For the same compound, the “TOTAL PROTEIN” value [1] was 6.87 G/DL, the BASOPHIL [2] was 0% and the EOSINOPHIL [2] was 0.2%. The “ERYTHROCYTE COUNT” value [2] was 6.02 x10E6/uL, the HEMATOCRIT [2] was 36.48% and the HEMOGLOBIN [2] was 14.38 G/DL. The “LEUKOCYTE COUNT” value [2] was 12.34 x10E3/uL, the LYMPHOCYTE [2] was 83% and the “MEAN CORPUSCULAR HEMOGLOBIN” value [2] was 23.92 pg. For the same compound, the “MEAN CORPUSCULAR HEMOGLOBIN CONCENTRATION” value [2] was 39.44 G/DL, the “MEAN CORPUSCULAR VOLUME” value [2] was 60.66 fL and the MONOCYTE [2] was 3%. The NEUTROPHIL [2] was 13.8%, the “PLATELET COUNT” value [2] was 1190.6 x10E3/uL and the “ALANINE AMINOTRANSFERASE” value [2] was 43 u/L. For the same compound, the ALBUMIN [2] was 3.73 G/DL, the “ALKALINE PHOSPHATASE” value [2] was 393 u/L and the “ASPARTATE AMINOTRANSFERASE” value [2] was 62.33 u/L. For the same compound, the “BLOOD UREA NITROGEN” value [2] was 16.33 mg/dL, the CHLORIDE [2] was 101.67 MEQ/L and the CHOLESTEROL [2] was 65.5 mg/dL. For the same compound, the “CREATINE PHOSPHOKINASE” value [2] was 130.67 u/L, the CREATININE [2] was 0.58 mg/dL and the GLUCOSE [2] was 180.67 mg/dL. For the same compound, the PHOSPHORUS [2] was 11.28 mg/dL, the POTASSIUM [2] was 7.05 MEQ/L and the SODIUM [2] was 148.17 MEQ/L. The “TOTAL BILIRUBIN” value [2] was 0.72 mg/dL, the “TOTAL PROTEIN” value [2] was 6.83 G/DL and the BASOPHIL [3] was 0%. For the same compound, the EOSINOPHIL [3] was 0.5%, the “ERYTHROCYTE COUNT” value [3] was 5.78 x10E6/uL and the HEMATOCRIT [3] was 35.75%. For the same compound, the HEMOGLOBIN [3] was 13.85 G/DL, the “LEUKOCYTE COUNT” value [3] was 11.7 x10E3/uL and the LYMPHOCYTE [3] was 88%. The “MEAN CORPUSCULAR HEMOGLOBIN” value [3] was 24.05 pg, the “MEAN CORPUSCULAR HEMOGLOBIN CONCENTRATION” value [3] was 38.75 G/DL and the “MEAN CORPUSCULAR VOLUME” value [3] was 61.95 fL. For the same compound, the MONOCYTE [3] was 1%, the NEUTROPHIL [3] was 10.5% and the “PLATELET COUNT” value [3] was 1307.5 x10E3/uL. For the same compound, the “ALANINE AMINOTRANSFERASE” value [3] was 36.33 u/L, the ALBUMIN [3] was 3.67 G/DL and the “ALKALINE PHOSPHATASE” value [3] was 323 u/L. For the same compound, the “ASPARTATE AMINOTRANSFERASE” value [3] was 59.33 u/L, the “BLOOD UREA NITROGEN” value [3] was 13 mg/dL and the CHLORIDE [3] was 101.33 MEQ/L. For the same compound, the CHOLESTEROL [3] was 71 mg/dL, the “CREATINE PHOSPHOKINASE” value [3] was 134.67 u/L and the CREATININE [3] was 0.6 mg/dL. The GLUCOSE [3] was 200 mg/dL, the PHOSPHORUS [3] was 13.27 mg/dL and the POTASSIUM [3] was 7.37 MEQ/L. The SODIUM [3] was 149.67 MEQ/L, the “TOTAL BILIRUBIN” value [3] was 0.5 mg/dL and the “TOTAL PROTEIN” value [3] was 6.67 G/DL. The BASOPHIL [4] was 0%, the EOSINOPHIL [4] was 0% and the “ERYTHROCYTE COUNT” value [4] was 6.06 x10E6/uL. For the same compound, the HEMATOCRIT [4] was 36.63%, the HEMOGLOBIN [4] was 14.83 G/DL and the “LEUKOCYTE COUNT” value [4] was 14.27 x10E3/uL. For the same compound, the LYMPHOCYTE [4] was 90.67%, the “MEAN CORPUSCULAR HEMOGLOBIN” value [4] was 24.53 pg and the “MEAN CORPUSCULAR HEMOGLOBIN CONCENTRATION” value [4] was 40.53 G/DL. The “MEAN CORPUSCULAR VOLUME” value [4] was 60.5 fL, the MONOCYTE [4] was 2.33% and the NEUTROPHIL [4] was 7%. For the same compound, the “PLATELET COUNT” value [4] was 1156 x10E3/uL, the “ALANINE AMINOTRANSFERASE” value [4] was 34.67 u/L and the ALBUMIN [4] was 3.8 G/DL. The “ALKALINE PHOSPHATASE” value [4] was 375.67 u/L, the “ASPARTATE AMINOTRANSFERASE” value [4] was 59 u/L and the “BLOOD UREA NITROGEN” value [4] was 14 mg/dL. The CHLORIDE [4] was 103.67 MEQ/L, the CHOLESTEROL [4] was 67.33 mg/dL and the “CREATINE PHOSPHOKINASE” value [4] was 95.67 u/L. It also gave a CREATININE [4] of 0.6 mg/dL, a GLUCOSE [4] of 184.67 mg/dL and a PHOSPHORUS [4] of 11.97 mg/dL. For the same compound, the POTASSIUM [4] was 6.8 MEQ/L, the SODIUM [4] was 151.67 MEQ/L and the “TOTAL BILIRUBIN” value [4] was 0.5 mg/dL. The “TOTAL PROTEIN” value [4] was 6.87 G/DL, the BASOPHIL [5] was 0% and the EOSINOPHIL [5] was 0.67%. For the same compound, the “ERYTHROCYTE COUNT” value [5] was 4.74 x10E6/uL, the HEMATOCRIT [5] was 27.07% and the HEMOGLOBIN [5] was 11.3 G/DL. The “LEUKOCYTE COUNT” value [5] was 18.97 x10E3/uL, the LYMPHOCYTE [5] was 64% and the “MEAN CORPUSCULAR HEMOGLOBIN” value [5] was 23.87 pg. The “MEAN CORPUSCULAR HEMOGLOBIN CONCENTRATION” value [5] was 41.93 G/DL, the “MEAN CORPUSCULAR VOLUME” value [5] was 57.07 fL and the MONOCYTE [5] was 1%. The NEUTROPHIL [5] was 34.33%, the “PLATELET COUNT” value [5] was 1411 x10E3/uL and the “ALANINE AMINOTRANSFERASE” value [5] was 107.67 u/L. For the same compound, the ALBUMIN [5] was 3.83 G/DL, the “ALKALINE PHOSPHATASE” value [5] was 223 u/L and the “ASPARTATE AMINOTRANSFERASE” value [5] was 109.33 u/L. For the same compound, the “BLOOD UREA NITROGEN” value [5] was 10.33 mg/dL, the CHLORIDE [5] was 101.67 MEQ/L and the CHOLESTEROL [5] was 67.33 mg/dL. The “CREATINE PHOSPHOKINASE” value [5] was 171 u/L, the CREATININE [5] was 0.63 mg/dL and the GLUCOSE [5] was 206.33 mg/dL. It also gave a PHOSPHORUS [5] of 12.3 mg/dL, a POTASSIUM [5] of 6.63 MEQ/L and an SODIUM [5] of 149 MEQ/L. The “TOTAL BILIRUBIN” value [5] was 1.13 mg/dL, the “TOTAL PROTEIN” value [5] was 6.83 G/DL and the BASOPHIL [6] was 0%. The EOSINOPHIL [6] was 0%, the “ERYTHROCYTE COUNT” value [6] was 3.96 x10E6/uL and the HEMATOCRIT [6] was 24.15%. For the same compound, the HEMOGLOBIN [6] was 9.8 G/DL, the “LEUKOCYTE COUNT” value [6] was 13 x10E3/uL and the LYMPHOCYTE [6] was 85.5%. The “MEAN CORPUSCULAR HEMOGLOBIN” value [6] was 24.9 pg, the “MEAN CORPUSCULAR HEMOGLOBIN CONCENTRATION” value [6] was 40.55 G/DL and the “MEAN CORPUSCULAR VOLUME” value [6] was 61.35 fL. The MONOCYTE [6] was 2.5%, the NEUTROPHIL [6] was 12% and the “PLATELET COUNT” value [6] was 1586 x10E3/uL. The “ALANINE AMINOTRANSFERASE” value [6] was 45 u/L, the ALBUMIN [6] was 3.85 G/DL and the “ALKALINE PHOSPHATASE” value [6] was 303 u/L. The “ASPARTATE AMINOTRANSFERASE” value [6] was 67 u/L, the “BLOOD UREA NITROGEN” value [6] was 12 mg/dL and the CHLORIDE [6] was 105 MEQ/L. For the same compound, the CHOLESTEROL [6] was 49.5 mg/dL, the “CREATINE PHOSPHOKINASE” value [6] was 75 u/L and the CREATININE [6] was 0.45 mg/dL. For the same compound, the GLUCOSE [6] was 223.5 mg/dL, the PHOSPHORUS [6] was 12.75 mg/dL and the POTASSIUM [6] was 7.2 MEQ/L. The SODIUM [6] was 148.5 MEQ/L, the “TOTAL BILIRUBIN” value [6] was 0.9 mg/dL and the “TOTAL PROTEIN” value [6] was 7.05 G/DL.
